Columns and labels:
DBA/1 mice = experiment: Reversal of FFA's anticonvulsant and S-IRA blocking effects by selective 5-HT receptor antagonists in DBA/1 mice; format: in vivo, mouse
Description: (§1) For these experiments, DBA/1 mice (N=287) were used (after subjecting to the established priming procedure to assure consistent susceptibility to S-IRA following AGSz) to assess the effects of fenfluramine on various 5-HT receptors. Seizures were induced using an electrical bell, and resuscitation was accomplished using a rodent respirator (Faingold et al., 2010). At least 24 hours after priming, the mice received FFA (15 mg/kg, i.p.) and were tested for AGSz and S-IRA susceptibility 16 hours later. Thirty minutes prior to AGSz induction, a selective 5-HT receptor antagonist or vehicle was administered to evaluate if a specific receptor contributes to the ability of FFA to block S-IRA. Seizure behaviors were recorded on videotape, quantified, and compared statistically with vehicle-treated negative and FFA-treated positive controls (Chi-Square Test; significance set at p<0.05).
Specifically, the antagonists tested were: the 5-HT1A antagonist WAY100635 (0.1-15 mg/kg); the 5-HT2 antagonist Ritanserin (10-20 mg/kg); the 5-HT3 antagonist Ondansetron (1-3 mg/kg); the 5-HT4 antagonist GR125487 (20-60 mg/kg); the 5-HT5A antagonist SB669551 (10-20 mg/kg); and the 5-HT7 antagonist SB269970 (30-40 mg/kg). Studies investigating the effect of 5-HT6 and 5-HT1a/1b antagonists are also underway.
as §1, with “mice” for “mice (N=287)”

DBA mice = conditions: cited from earlier work; for seizure-induced respiratory failure and death: DBA mice, dose-dependent
[1] = dietary supplementation, DBA/1 mice

COc1ccccc1N1CCN(CCN(C(=O)C2CCCCC2)c2ccccn2)CC1 [WAY100635]
reversal of FFA's effect (DBA/1 mice; antagonist 0.1-15 mg/kg, FFA 15 mg/kg): not effective at any dose tested

Cc1nc2sccn2c(=O)c1CCN1CCC(=C(c2ccc(F)cc2)c2ccc(F)cc2)CC1 [Ritanserin]
reversal of FFA's anticonvulsant effect against the severity of AGSz (DBA/1 mice; antagonist 20 mg/kg, FFA 15 mg/kg): able to reverse

CNCC[C@@H](Oc1ccccc1C)c1ccccc1 [atomoxetine]
seizure-induced respiratory failure and death (DBA mice): prevent

Cc1nccn1CC1CCc2c(c3ccccc3n2C)C1=O (centres unmarked) [Ondansetron]
reversal of FFA's effect (DBA/1 mice; antagonist 1-3 mg/kg, FFA 15 mg/kg): not effective at any dose tested

CNCCC(Oc1ccc(C(F)(F)F)cc1)c1ccccc1 (centres unmarked) [fluoxetine]
seizure-induced respiratory failure and death (DBA mice): prevent

CC1CCN(CC[C@H]2CCCN2S(=O)(=O)c2cccc(O)c2)CC1 [SB269970]
reversal of FFA's anticonvulsant effect against the severity of AGSz (DBA/1 mice; antagonist 30 mg/kg and 40 mg/kg, FFA 15 mg/kg): able to reverse

COc1ccc(C(CN(C)C)C2(O)CCCCC2)cc1 (centres unmarked) [venlafaxine]
seizure-induced respiratory failure and death (DBA mice): prevent

CN(C)CCN(Cc1ccc(-c2ccc(CNCCc3ccccc3)cc2)cc1)C(=O)CCC1CCCC1 [SB669551]
effect on FFA's anticonvulsant effect (DBA/1 mice; antagonist at 20 mg/kg, FFA 15 mg/kg): blocked

COc1[nH]c2ccc(F)cc2c1C(=O)OCC1CCN(CCNS(C)(=O)=O)CC1 [GR125487]
reversal of the FFA-induced S-IRA blockade (DBA/1 mice; antagonist 30 mg/kg, 30 min before AGSz, FFA 15 mg/kg i.p. 16 h before, p<0.05): partial reversal | reversal of FFA's anticonvulsant effect against the severity of AGSz (DBA/1 mice; antagonist 30 and 60 mg/kg, FFA 15 mg/kg): able to reverse

CN[C@H]1CC[C@@H](c2ccc(Cl)c(Cl)c2)c2ccccc21 [sertraline]
seizure-induced respiratory failure and death (DBA mice): prevent

COCCCC/C(=N\OCCN)c1ccc(C(F)(F)F)cc1 [fluvoxamine]
seizure-induced respiratory failure and death (DBA mice): prevent

N[C@@H](Cc1c[nH]c2ccc(O)cc12)C(=O)O [5-hydroxytryptophan]
S-IRA (DBA mice; [1]): blocked | incidence of AGSz behaviors (DBA mice; [1]): significantly reduced

From patent US11571397B2, “Compositions and methods for treating seizure-induced sudden death” (ZOGENIX INTERNATIONAL LIMITED, priority 2018, dated 2023)
